# Measured values published in patent US20230357159A1, “QUINOLINE COMPOUNDS AS SELECTIVE AND/OR DUAL MODULATORS OF BILE ACID RECEPTORS AND LEUKOTRIENE CYSTEINYL RECEPTORS” (PRECISION BIO-THERAPEUTICS S.R.L., priority 2020, published 2023).
# Assays:
# [1] = biological target: T1, human GPBAR1 (Homo sapiens, UniProt Q8TDU6); experiment: GPBAR1-mediated transactivation, CRE-luciferase reporter in HEK-293T cells; type: cell-based; conditions: for GPBAR1 (% of activity compared to 10 µM TLCA): compound at 10 microM, TLCA = 100%
# T1 construct: expressed in transfected cells; host or cells: HEK-293T
# T1 sequence (Q8TDU6 1-330): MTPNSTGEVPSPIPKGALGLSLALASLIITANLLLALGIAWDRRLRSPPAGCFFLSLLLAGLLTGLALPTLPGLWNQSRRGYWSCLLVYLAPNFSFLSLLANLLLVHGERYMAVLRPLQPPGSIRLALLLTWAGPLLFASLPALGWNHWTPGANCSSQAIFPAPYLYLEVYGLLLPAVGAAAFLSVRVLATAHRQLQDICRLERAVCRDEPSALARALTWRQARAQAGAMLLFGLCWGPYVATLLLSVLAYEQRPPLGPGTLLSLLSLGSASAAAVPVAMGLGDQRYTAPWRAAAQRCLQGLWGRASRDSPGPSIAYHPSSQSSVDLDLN
# Protocol: (§1) In this table, the activities of the compounds are compared with specific reference compounds, namely CDCA for FXR, TLCA for TGR5/GPBAR1, MK571 for CysLT1R. Each compound is tested at a concentration of 10 microM and the activity of the reference compounds is considered to be 100%.
# In another experimental set, 24 hours after transfection, the cells were stimulated with 50 µM of the derivatives CHIN in combination with 10 µM of CDCA or TLCA.
# (§2) Eighteen hours after stimulation, the cell lysates were used to assess Luciferase and Renilla activity by means of the Dual-Luciferase Reporter assay (E1980, Promega Madison WI). The luminescence was measured using the Glomax 20/20 luminometer (Promega, Madison WI) and the Luciferase activity was normalised with the Renilla activity.
# [2] = biological target: T2, FXR (Homo sapiens, UniProt Q96RI1); experiment: FXR-mediated transactivation, luciferase reporter in HepG2 cells; type: cell-based; conditions: compound at 10 microM, CDCA = 100%
# T2 construct: expressed in transfected cells; host or cells: HepG2
# T2 sequence (Q96RI1 1-486): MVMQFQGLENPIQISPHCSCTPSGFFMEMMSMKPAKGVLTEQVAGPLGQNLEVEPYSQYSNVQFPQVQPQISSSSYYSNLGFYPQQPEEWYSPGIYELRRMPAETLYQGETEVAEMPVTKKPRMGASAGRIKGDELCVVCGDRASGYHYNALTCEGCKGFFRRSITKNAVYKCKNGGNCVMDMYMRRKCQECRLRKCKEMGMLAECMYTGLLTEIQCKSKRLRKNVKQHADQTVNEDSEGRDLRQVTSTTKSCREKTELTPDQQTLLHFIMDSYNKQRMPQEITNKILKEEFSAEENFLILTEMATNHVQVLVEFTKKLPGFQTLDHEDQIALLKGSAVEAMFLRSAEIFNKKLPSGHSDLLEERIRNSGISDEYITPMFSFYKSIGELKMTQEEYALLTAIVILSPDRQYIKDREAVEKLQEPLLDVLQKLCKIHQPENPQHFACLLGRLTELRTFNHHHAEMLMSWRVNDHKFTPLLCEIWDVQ
# T2 sequence (P19793 1-462 partner): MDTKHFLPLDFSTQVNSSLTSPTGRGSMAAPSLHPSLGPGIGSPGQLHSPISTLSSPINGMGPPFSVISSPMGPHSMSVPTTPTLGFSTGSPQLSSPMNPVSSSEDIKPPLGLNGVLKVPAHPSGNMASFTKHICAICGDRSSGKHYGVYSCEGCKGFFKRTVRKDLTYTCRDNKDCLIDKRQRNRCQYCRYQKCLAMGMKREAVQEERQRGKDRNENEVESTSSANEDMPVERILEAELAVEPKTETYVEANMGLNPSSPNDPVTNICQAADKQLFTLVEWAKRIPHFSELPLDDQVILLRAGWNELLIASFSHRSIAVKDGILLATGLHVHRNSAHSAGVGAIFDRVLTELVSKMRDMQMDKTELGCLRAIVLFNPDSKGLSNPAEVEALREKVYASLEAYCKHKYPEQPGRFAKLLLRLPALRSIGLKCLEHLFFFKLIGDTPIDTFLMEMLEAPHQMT
# Protocol: as §1
# For FXR-mediated transactivation, the HepG2 cells were transfected with 200 ng of the p(hsp27)-TK-LUC reporter vector containing the FXR response element (IR1) cloned from the heat shock protein 27 (hsp27) promoter, 100 ng of pSG5-FXR, 100 ng of pSG5-RXR and 100 of pGL4.70 (Promega, Madison WI), a vector encoding for the human Renilla gene. […]
# as §2
# [3] = biological target: T2, FXR; experiment: as above; type: cell-based; conditions: dose-response 0.1-75 µM, read-out: FXR ECso
# [4] = biological target: T3, CysLT1R (Homo sapiens, UniProt Q9Y271); experiment: CysLT1R antagonistic activity assay (Ca2+ fluorescence, 0.1 nM LTD4; Eurofins Cerep-Panlabs); type: cell-based; conditions: for IC50: antagonism of 0.1 nM LTD4, read-out: CysLTR1 ICso; for inhibition at 10 µM: read-out: CysLTR1 (% of inhibition compared to the compound MK571)
# T3 construct: Eurofins Cerep-Panlabs (France)
# T3 sequence (Q9Y271 1-337): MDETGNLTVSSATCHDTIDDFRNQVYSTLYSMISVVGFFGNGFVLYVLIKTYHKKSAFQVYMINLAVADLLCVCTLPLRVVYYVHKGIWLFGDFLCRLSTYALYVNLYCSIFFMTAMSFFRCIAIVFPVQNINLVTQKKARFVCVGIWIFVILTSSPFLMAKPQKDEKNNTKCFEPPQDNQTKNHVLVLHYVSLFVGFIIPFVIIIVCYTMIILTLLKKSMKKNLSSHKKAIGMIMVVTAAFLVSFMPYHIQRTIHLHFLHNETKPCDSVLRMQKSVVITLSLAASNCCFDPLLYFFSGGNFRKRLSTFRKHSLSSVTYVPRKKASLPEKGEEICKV
# Protocol: as §1
# The antagonistic activity assay was performed by Eurofins Cerep-Panlabs (France). […] The plates are then placed in a microplate reader (CellLux, PerkinElmer), which is used to add the compounds to be tested or the HBSS buffer and then after 5 min with a 0.1 nM LTD4 or HBSS buffer solution (used as control). The change in intensity and fluorescence that varies in proportion to the concentration of free Ca^2+ ion in the cytosol is measured.
# [5] = Aqueous solubility; type: physicochemical; conditions: pH 7.4
# [6] = system: male C57BL/6 mice; experiment: HFD-F diet murine model of NAFLD/NASH; type: in vivo; conditions: 30 mg/kg daily from day 7
# Protocol: CHIN117 and the efficacy thereof in a murine model of chronic hepatitis induced by a high-fat diet are of particular interest. This murine model simulates NAFLD, which represents a rapidly growing epidemic in industrialised countries and has a very high cost for the health care system. In this model, the mice (male C57BL/6 mice) were fed a diet rich in lipids and cholesterol (2% cholesterol) and added fructose (3%) in water (HFD-F) for 60 days. CHIN117 was administered daily at a dose of 30 mg/kg starting on day 7. […] After eight weeks, the mice develop insulin resistance, as shown by the OGTT results (FIGS. 4E, F).
# In addition, HFD-F indicates an increase in body mass index (BMI) and weight of the white adipose tissue of the epididymis (eWAT), of the brown adipose tissue (BAT) and of the liver (FIGS. 5C-I).
# [7] = system: S9 fraction; experiment: Metabolic stability in vitro, S9 fraction; type: in vitro ADME; conditions: also phase II enzymes
# [8] = system: wild-type C57/B16 mice; experiment: Acetaminophen (APAP)-induced acute hepatitis in mice; type: in vivo; conditions: APAP 500 mg/kg oral gavage; 30 mg/kg orally 45 min after induction; 24 hours
# Protocol: CHIN117 and the effect thereof in reducing acetaminophen-induced liver damage (APAP) are of particular interest. In the experimental set, acute hepatitis was induced in wild-type C57/B16 mice by administration of acetaminophen (APAP) at a concentration of 500 mg/kg via oral gavage. 45 minutes after induction of the disease, CHIN117 was administered at a concentration of 30 mg/kg orally. The mice were sacrificed 24 hours after induction of the disease and blood was taken and analysed for blood count and AST and ALT transaminase values.
# The administration of the compound CHIN117 was able to alleviate the APAP-induced liver damage by reducing AST and ALT values by about 10-fold if compared to those recorded in the group of mice treated with APAP alone.
# [9] = compound at 10 microM, MK571 = 100%, 0.1 nM LTD4
Structure (SMILES),GPBAR1 (% of activity compared to 10 µM TLCA) [1] [%],FXR (% of activity compared to 10 µM CDCA) [2] [%],"inhibition at 10 µM [4, 9] [%]",further results
"COC(=O)c1cccc(OCc2ccc3ccccc3n2)c1 [CHIN104, Methyl 3-(Quinolin-2-ylmethoxy)Benzoate]",23,32.46,–,EC50 [3]: 9 µM
"COC(=O)c1cc(O)cc(OCc2ccc3ccccc3n2)c1 [CHIN107, methyl 3-hydroxy-5-(quinolin-2-ylmethoxy)benzoate]",17.58,12.78,59,IC50 [4]: > 10 µM
"O=C(O)c1cc(O)cc(OCc2ccc3ccccc3n2)c1 [CHIN108, 3-hydroxy-5-(quinolin-2-ylmethoxy)benzoic Acid]",–,8.22,–,–
"OCc1cc(O)cc(OCc2ccc3ccccc3n2)c1 [CHIN109, 3-(hydroxymethyl) -5-(quinolin-2-ylmethoxy)phenol]",–,5.92,26,–
"CC(C)Oc1cccc(OCc2ccc3ccccc3n2)c1 [CHIN111, 2-((3-isopropoxyphenoxy)methyl)quinoline]",–,–,79,–
"CCC(C)COc1cccc(OCc2ccc3ccccc3n2)c1 (stereo not shown) [CHIN114, 2-((3-(2-methylbutoxy)phenoxy)methyl)quinoline]",–,–,15,–
"COC(=O)c1cccc(-c2ccc(OCc3ccc4ccccc4n3)cc2)c1 [CHIN116, Methyl 4′-(quinolin-2-ylmethoxy)-[1,1′-biphenyl]-3-carboxylate]",56.91,11.14,21,–
"O=C(O)c1cccc(-c2ccc(OCc3ccc4ccccc4n3)cc2)c1 [CHIN117, 4′-(quinolin-2-ylmethoxy)-[1,1′-biphenyl]-3-carboxylic Acid]",82,8.9,109,"EC50 ([1]; dose-response 0.1-75 µM, read-out: GPBAR1 ECso): 4.6 µM; aqueous solubility [5]: 66 µM; reduction of weight gain ([6]; HFD-F diet 60 days): about 3 grams; hepatic steatosis, BMI and eWAT, BAT and liver weight ([6]; HFD-F diet for 8 weeks): almost completely reversed the disease; AUC of OGTT ([6]; HFD-F diet, after eight weeks): reduces the AUC of OGTT; ALT levels ([6]; plasma, HFD-F diet): statistically reduces; AST levels ([6]; plasma, HFD-F diet): statistically reduces; LDL levels ([6]; plasma, HFD-F diet): statistically reduces; CLint S9 fraction [7]: 6; circulating white blood cell (WBC) values [8]: comparable to those found in untreated mice; reduction of ALT values compared to mice treated with APAP alone [8]: about 10 fold; reduction of AST values compared to mice treated with APAP alone [8]: about 10 fold; IC50 [4]: 5.67 µM"
OCc1cccc(-c2ccc(OCc3ccc4ccccc4n3)cc2)c1 [CHIN118],–,–,–,"CysLTR1 (% of inhibition compared to the compound MK571) [4, 9]: 59%"
"COC(=O)c1ccc(-c2ccc(OCc3ccc4ccccc4n3)cc2)cc1 [CHIN119, Methyl 4′-(quinolin-2-ylmethoxy)-[1,1′-biphenyl]-4-carboxylate]",13.5,6.83,13,–
"O=C(O)c1ccc(-c2ccc(OCc3ccc4ccccc4n3)cc2)cc1 [CHIN120, 4′-(quinolin-2-ylmethoxy)-[1,1′-biphenyl]-4-carboxylic Acid]",36.74,12.76,43,–
"OCc1cccc(-c2ccc(OCc3ccc4ccccc4n3)cc2)c1 [CHIN121, (4′-(quinolin-2-ylmethoxy)-[1,1′-biphenyl]-3-yl)methanol]",64.9,8.22,–,–
